In patent US11530210B2, “Substituted heteroaromatic pyrazolo-pyridines and their use as GLUN2B receptor modulators” (JANSSEN PHARMACEUTICA NV, priority 2019, dated 2022):

Each compound was assayed against T1, human GluN1/GluN2B NMDA receptors (Homo sapiens, UniProt Q13224) (assay: Calcium flux (FLIPR) assay on cloned human NR1/GluN2B ion channels expressed in mammalian cells (standard and HTS variants)). Conditions: cells expressing human GluN1/GluN2B, glutamate and glycine co-agonists.
T1 construct: expressed in transfected cells
T1 sequence (Q13224 27-1484, other chains not shown): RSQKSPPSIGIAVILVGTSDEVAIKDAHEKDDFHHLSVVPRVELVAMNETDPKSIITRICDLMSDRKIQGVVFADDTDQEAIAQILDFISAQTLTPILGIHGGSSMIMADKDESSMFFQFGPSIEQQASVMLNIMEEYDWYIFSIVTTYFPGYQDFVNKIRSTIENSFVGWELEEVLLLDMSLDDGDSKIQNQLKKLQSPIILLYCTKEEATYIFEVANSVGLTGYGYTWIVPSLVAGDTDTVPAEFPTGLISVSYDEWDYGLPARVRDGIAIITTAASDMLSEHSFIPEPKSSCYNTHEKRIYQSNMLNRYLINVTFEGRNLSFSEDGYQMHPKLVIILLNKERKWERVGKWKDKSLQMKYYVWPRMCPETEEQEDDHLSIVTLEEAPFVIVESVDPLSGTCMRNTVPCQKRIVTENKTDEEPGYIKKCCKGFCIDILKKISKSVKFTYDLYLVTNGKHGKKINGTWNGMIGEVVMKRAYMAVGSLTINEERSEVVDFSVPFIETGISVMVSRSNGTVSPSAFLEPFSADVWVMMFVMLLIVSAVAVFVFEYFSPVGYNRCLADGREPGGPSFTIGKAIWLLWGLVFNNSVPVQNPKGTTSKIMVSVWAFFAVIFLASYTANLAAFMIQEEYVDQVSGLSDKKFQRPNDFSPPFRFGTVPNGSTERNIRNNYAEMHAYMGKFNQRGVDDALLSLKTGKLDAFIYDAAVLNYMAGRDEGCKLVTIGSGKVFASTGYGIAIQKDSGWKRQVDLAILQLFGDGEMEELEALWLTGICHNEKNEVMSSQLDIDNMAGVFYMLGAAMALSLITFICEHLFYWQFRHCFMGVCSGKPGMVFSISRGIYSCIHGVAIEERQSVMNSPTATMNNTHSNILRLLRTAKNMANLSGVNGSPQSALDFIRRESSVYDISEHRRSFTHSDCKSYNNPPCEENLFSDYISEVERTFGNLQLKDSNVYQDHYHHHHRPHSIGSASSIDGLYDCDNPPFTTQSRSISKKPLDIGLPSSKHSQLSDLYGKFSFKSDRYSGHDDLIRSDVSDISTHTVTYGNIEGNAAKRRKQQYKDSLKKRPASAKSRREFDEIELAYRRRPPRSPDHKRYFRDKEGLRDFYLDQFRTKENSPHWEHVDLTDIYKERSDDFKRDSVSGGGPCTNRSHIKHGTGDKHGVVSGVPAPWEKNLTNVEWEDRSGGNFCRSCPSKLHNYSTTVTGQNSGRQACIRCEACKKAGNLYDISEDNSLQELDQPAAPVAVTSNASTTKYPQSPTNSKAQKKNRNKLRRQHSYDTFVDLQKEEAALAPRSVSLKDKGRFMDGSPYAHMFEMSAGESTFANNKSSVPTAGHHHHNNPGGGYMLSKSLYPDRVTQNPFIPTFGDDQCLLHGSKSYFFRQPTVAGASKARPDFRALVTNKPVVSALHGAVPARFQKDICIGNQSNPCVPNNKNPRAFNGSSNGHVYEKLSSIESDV
Type: cell-based
In short: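 Tet-On-induced stable cell line loaded with Calcium 5 dye; compounds applied 5 min (agonist check), then glutamate at ~EC40 plus 10 μM glycine for 5 min. Buffer pH 7.4 with 0.5 mM MgCl2 in dye loading (standard) or 1.5 mM (HTS). FLIPR fluorescence normalized to control wells; (+)MK-801 as antagonist control.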

Structure (SMILES)	IC50 [nM]
Cc1nnc(Cn2nc(F)c3ncc(-c4ccc(F)c(C(C)(F)F)c4)cc32)o1 [Example 105, 2-[[6-[3-(1,1-Difluoroethyl)-4-fluoro-phenyl]-3-fluoro-pyrazolo[4,3-b]pyridin-1-yl]methyl]-5-methyl-1,3,4-oxadiazole]	367
Cc1nnc(Cn2ncc3ncc(-c4ccc(Cl)c(C(F)F)c4)cc32)o1 [Example 106, 2-[[6-[4-Chloro-3-(difluoromethyl)phenyl]pyrazolo[4,3-b]pyridin-1-yl]methyl]-5-methyl-1,3,4-oxadiazole]	115
Cc1nnc(Cn2nc(F)c3ncc(-c4ccc(Cl)c(C(F)F)c4)cc32)o1 [Example 107, 2-[[6-[4-Chloro-3-(difluoromethyl)phenyl]-3-fluoro-pyrazolo[4,3-b]pyridin-1-yl]methyl]-5-methyl-1,3,4-oxadiazole]	347
Cc1noc(Cn2ncc3ncc(-c4cc(F)cc(C(F)(F)F)c4)cc32)n1 [Example 108, 5-[[6-[3-Fluoro-5-(trifluoromethyl)phenyl]pyrazolo[4,3-b]pyridin-1-yl]methyl]-3-methyl-1,2,4-oxadiazole]	815
Cc1noc(Cn2ncc3ncc(-c4cc(C(F)(F)F)ccc4F)cc32)n1 [Example 109, 5-[[6-[2-Fluoro-5-(trifluoromethyl)phenyl]pyrazolo[4,3-b]pyridin-1-yl]methyl]-3-methyl-1,2,4-oxadiazole]	3260
Cc1noc(Cn2ncc3ncc(-c4ccc(F)c(C(F)(F)F)c4)cc32)n1 [Example 110, 5-[[6-[4-Fluoro-3-(trifluoromethyl)phenyl]pyrazolo[4,3-b]pyridin-1-yl]methyl]-3-methyl-1,2,4-oxadiazole]	400
Cc1noc(Cn2ncc3ncc(-c4cccc(C(F)(F)F)c4F)cc32)n1 [Example 111, 5-[[6-[2-Fluoro-3-(trifluoromethyl)phenyl]pyrazolo[4,3-b]pyridin-1-yl]methyl]-3-methyl-1,2,4-oxadiazole]	183
Cc1noc(Cn2ncc3ncc(-c4ccc(F)c(OC(F)F)c4)cc32)n1 [Example 112, 5-[[6-[3-(Difluoromethoxy)-4-fluoro-phenyl]pyrazolo[4,3-b]pyridin-1-yl]methyl]-3-methyl-1,2,4-oxadiazole]	289
Cc1nnc(Cn2ncc3ncc(-c4ccc(F)c(OC(F)F)c4)cc32)o1 [Example 113, 2-[[6-[3-(Difluoromethoxy)-4-fluoro-phenyl]pyrazolo[4,3-b]pyridin-1-yl]methyl]-5-methyl-1,3,4-oxadiazole]	104
Cc1nc(Cn2ncc3ncc(-c4ccc(F)c(OC(F)F)c4)cc32)no1 [Example 114, 3-[[6-[3-(Difluoromethoxy)-4-fluoro-phenyl]pyrazolo[4,3-b]pyridin-1-yl]methyl]-5-methyl-1,2,4-oxadiazole]	279
Fc1ccc(-c2cnc3cnn(Cc4nnc(C(F)(F)F)o4)c3c2)cc1OC(F)F [Example 115, 2-[[6-[3-(Difluoromethoxy)-4-fluoro-phenyl]pyrazolo[4,3-b]pyridin-1-yl]methyl]-5-(trifluoromethyl)-1,3,4-oxadiazole]	414
Cc1nnc(Cn2ncc3ncc(-c4ccc(Cl)c(OC(F)F)c4)cc32)o1 [Example 116, 2-[[6-[4-Chloro-3-(difluoromethoxy)phenyl]pyrazolo[4,3-b]pyridin-1-yl]methyl]-5-methyl-1,3,4-oxadiazole]	283
Cc1nnc(Cn2nc(F)c3ncc(-c4ccc(Cl)c(OC(F)F)c4)cc32)o1 [Example 117, 2-[[6-[4-Chloro-3-(difluoromethoxy)phenyl]-3-fluoro-pyrazolo[4,3-b]pyridin-1-yl]methyl]-5-methyl-1,3,4-oxadiazole]	655
Cc1nnc(Cn2ncc3ncc(-c4ccc(F)c(C)c4F)cc32)o1 [Example 118, 2-[[6-(2,4-Difluoro-3-methyl-phenyl)pyrazolo[4,3-b]pyridin-1-yl]methyl]-5-methyl-1,3,4-oxadiazole]	35
Cc1c(F)ccc(-c2cnc3cnn(Cc4nnc(C(F)(F)F)o4)c3c2)c1F [Example 119, 2-[[6-(2,4-Difluoro-3-methyl-phenyl)pyrazolo[4,3-b]pyridin-1-yl]methyl]-5-(trifluoromethyl)-1,3,4-oxadiazole]	245
FC(F)(F)c1cccc(-c2cnc3cnn(Cc4csnn4)c3c2)c1 [Example 120, 4-[[6-[3-(Trifluoromethyl)phenyl]pyrazolo[4,3-b]pyridin-1-yl]methyl]thiadiazole]	895
Fc1ccc(-c2cnc3cnn(Cc4nncs4)c3c2)cc1C(F)F [Example 121, 2-[[6-[3-(Difluoromethyl)-4-fluoro-phenyl]pyrazolo[4,3-b]pyridin-1-yl]methyl]-1,3,4-thiadiazole]	25
Cc1nnc(Cn2nc(F)c3ncc(-c4ccc(F)c(C(F)F)c4)cc32)s1 [Example 123, 2-[[6-[3-(Difluoromethyl)-4-fluoro-phenyl]-3-fluoro-pyrazolo[4,3-b]pyridin-1-yl]methyl]-5-methyl-1,3,4-thiadiazole]	42
Cc1nnc(Cn2nc(C)c3ncc(-c4ccc(F)c(C(F)F)c4)cc32)s1 [Example 124, 2-[[6-[3-(Difluoromethyl)-4-fluoro-phenyl]-3-methyl-pyrazolo[4,3-b]pyridin-1-yl]methyl]-5-methyl-1,3,4-thiadiazole]	66
CCc1nnc(Cn2ncc3ncc(-c4ccc(F)c(C(F)F)c4)cc32)s1 [Example 125, 2-[[6-[3-(Difluoromethyl)-4-fluoro-phenyl]pyrazolo[4,3-b]pyridin-1-yl]methyl]-5-ethyl-1,3,4-thiadiazole]	138
CNc1nnc(Cn2ncc3ncc(-c4ccc(F)c(C(F)F)c4)cc32)s1 [Example 126, 5-((6-(3-(difluoromethyl)-4-fluorophenyl)-1H-pyrazolo[4,3-b]pyridin-1-yl)methyl)-N-methyl-1,3,4-thiadiazol-2-amine]	1620
COc1nnc(Cn2ncc3ncc(-c4ccc(F)c(C(F)F)c4)cc32)s1 [Example 127, 2-[[6-[3-(difluoromethyl)-4-fluoro-phenyl]pyrazolo[4,3-b]pyridin-1-yl]methyl]-5-methoxy-1,3,4-thiadiazole]	850
CC(=O)Nc1nnc(Cn2ncc3ncc(-c4ccc(F)c(C(F)F)c4)cc32)s1 [Example 128, N-(5-((6-(3-(Difluoromethyl)-4-fluorophenyl)-1H-pyrazolo[4,3-b]pyridin-1-yl)methyl)-1,3,4-thiadiazol-2-yl)acetamide]	> 2990
Fc1ccc(-c2cnc3cnn(Cc4nnc(C(F)F)s4)c3c2)cc1C(F)F [Example 129, 2-(Difluoromethyl)-5-[[6-[3-(difluoromethyl)-4-fluoro-phenyl]pyrazolo[4,3-b]pyridin-1-yl]methyl]-1,3,4-thiadiazole]	17
Fc1ccc(-c2cnc3cnn(Cc4nnc(C5CC5)s4)c3c2)cc1C(F)F [Example 130, 2-Cyclopropyl-5-[[6-[3-(difluoromethyl)-4-fluoro-phenyl]pyrazolo[4,3-b]pyridin-1-yl]methyl]-1,3,4-thiadiazole]	123
Cc1nnc(Cn2ncc3ncc(-c4ccc(Cl)c(C(F)F)c4)cc32)s1 [Example 131, 2-[[6-[4-Chloro-3-(difluoromethyl)phenyl]pyrazolo[4,3-b]pyridin-1-yl]methyl]-5-methyl-1,3,4-thiadiazole]	57
